Measurements published in patent publication US4220587A, “Amino acid derivatives of 6-(2-amino-2-arylacetamido)penicillanic acids” (Mitsubishi Chemical Industries, Limited, priority 1975, dated 1980).
≈ marks a conversion by molar mass, not a printed value. Read-outs that look alike come from different tables or passages of the source.

What was measured:
Type in all cases: cell-based
[1] = tested on: Proteus morgani (IFO 3848); test: MIC, agar dilution, Proteus morgani; conditions: Morganella morganii, IFO3848, 20 h, read-out: Minimum Inhibitory Concentration (MIC)
Experimental: (§1) The compounds of this invention were tested for antibacterial activity according to the following procedure. Nutrient broth and nutrient agar were prepared according to the conventional procedure. […] was used as a vehicle. The stock solution was prepared at 100 μg/ml of the test material in the vehicle. Two-fold dilutions were made with the vehicle and then the diluted stock solution was added to a petri dish and solidified by chilling. Test organisms were grown in the nutrient broth for 20 hours at 37° C. The hardened surface was inoculated with a loopful of the test organism solution containing 1×10^6 cells per milliliter and incubated for 20 hours at 37° C. At the end of this period, growth of the organism was observed. […] The following Table 1 summarizes the activity of representative compounds as active antibacterial agents, and compares them with the prior art compounds and the reference drug Sulbenicillin.

[2] = tested on: Pseudomonas aeruginosa (ATCC 15692); test: MIC, agar dilution, Pseudomonas aeruginosa ATCC 15692; conditions: read-out: Minimum Inhibitory Concentration (MIC)
Experimental: as §1

[3] = tested on: Proteus mirabilis (IFO 3849); test: MIC, agar dilution, Proteus mirabilis; conditions: Proteus mirabilis, IFO3849, 20 h, read-out: Minimum Inhibitory Concentration (MIC)
Experimental: as §1

Staph. aureus (FDA 209P) = test: MIC, agar dilution, Staph. aureus; conditions: Staphylococcus aureus, FDA209P, 20 h, read-out: Minimum Inhibitory Concentration (MIC)
Experimental: as §1

[4] = tested on: Proteus vulgaris (IFO 3045); test: MIC, agar dilution, Proteus vulgaris; conditions: Proteus vulgaris, IFO3045, 20 h, read-out: Minimum Inhibitory Concentration (MIC)
Experimental: as §1

E. coli (NIHJ) = test: MIC, agar dilution, E. coli; conditions: Escherichia coli, 20 h, read-out: Minimum Inhibitory Concentration (MIC)
Experimental: as §1

Question: What does the source list for `CC1(C)S[C@@H]2[C@H](NC(=O)[C@H](NC(=O)[C@@H]3CCCN3)c3ccc(O)cc3)C(=O)N2[C@H]1C(=O)O` [Compound 4]?
Answer: MIC [1]: 9 µg/mL (≈ 19.5 µM); MIC ([2]; ATCC15692, P. aeruginosa ATCC 15692, nutrient agar, 20 hours at 37° C.): 50 µg/mL (≈ 108 µM); MIC [3]: 9 µg/mL (≈ 19.5 µM); MIC (Staph. aureus (FDA 209P)): 1.25 µg/mL (≈ 2.7 µM); MIC [4]: 12.5 µg/mL (≈ 27 µM); MIC (E. coli (NIHJ)): 25 µg/mL (≈ 54.1 µM)

Question: Which results are given for `CC1(C)S[C@@H]2[C@H](NC(=O)[C@H](NC(=O)[C@H]3CCCN3)c3ccc(O)cc3)C(=O)N2[C@H]1C(=O)O` [Compound 3, 6-[D-2-(D-prolylamino)-2-(4-hydroxyphenyl)acetamido]penicillanic acid monohydrate]?
Answer: MIC [1]: 3.1 µg/mL; MIC ([2]; ATCC15692, 20 h): 6.2 µg/mL; MIC [3]: 2.2 µg/mL; MIC (Staph. aureus (FDA 209P)): 0.9 µg/mL; MIC [4]: 6.2 µg/mL; MIC (E. coli (NIHJ)): 6.2 µg/mL
